# Structures can show the parent of a compound that is named as a salt. Where two headings read alike, the source gives them in different places.
# Columns and labels:
# [1] = target: T1, SARS-CoV-2 PLpro (nsp3 1564–1878) (Severe acute respiratory syndrome coronavirus 2, UniProt P0DTD1); assay: biochemical; design: FRET-quenched peptide (Pro3) cleavage by PLpro, 10 min pre-incubation, slope over 20 min, normalised to no-compound control; settings: low concentration screen, read-out: % of control remaining
# [2] = target: T1, SARS-CoV-2 PLpro (nsp3 1564–1878); assay: biochemical; design: FRET-quenched peptide (Pro3) cleavage by PLpro, 10 min pre-incubation, slope over 20 min, normalised to no-compound control; settings: high concentration screen, read-out: % of control remaining
structure (smiles),measurement,setting,value
Cc1nc(N=Nc2ccc(C(=O)O)cc2)c(COP(=O)(O)O)c(C=O)c1O [MRS 2159],remaining activity at 1.25 µM,[1]; Well no.=1030,102%
same,remaining activity at 3.75 µM,[2]; Well no.=1030,101%
O=C1NC(=O)C(c2cnc3ccccn23)=C1c1cn2c3c(cc(F)cc13)CN(C(=O)N1CCCCC1)CC2 [LY2090314],remaining activity at 1.25 µM,[1]; Well no.=5645,98.7%
same,remaining activity at 3.75 µM,[2]; Well no.=5645,98.2%
CCCc1nn(C)c2c(=O)[nH]c(-c3cc(S(=O)(=O)N4CCN(C)CC4)ccc3OCC)nc12 [Sildenafil Mesylate],remaining activity at 1.25 µM,[1]; Well no.=8206,106%
same,remaining activity at 3.75 µM,[2]; Well no.=8206,103%
O=C(C[S+]([O-])Cc1ccco1)NC/C=C\COc1cc(CN2CCCCC2)ccn1 (stereo not shown) [Lafutidine],remaining activity at 1.25 µM,[1]; Well no.=4722,93.3%
same,remaining activity at 1.25 µM,[1]; Well no.=7581,90.1%
same,remaining activity at 3.75 µM,[2]; Well no.=4722,95%
same,remaining activity at 3.75 µM,[2]; Well no.=7581,90.4%
COc1ccc(-c2ccc3c(N4CCOC[C@@H]4C)nc(N4CCOC[C@@H]4C)nc3n2)cc1CO [AZD8055],remaining activity at 1.25 µM,[1]; Well no.=5293,99.1%
same,remaining activity at 3.75 µM,[2]; Well no.=5293,97.4%
Cc1cc(=O)n(-c2ccccc2)n1C [Antipyrine],remaining activity at 1.25 µM,[1]; Well no.=5024,96.5%
same,remaining activity at 3.75 µM,[2]; Well no.=5024,100%
OCc1cc(C(O)CNCCCCCCOCCCCc2ccccc2)ccc1O (stereo not shown) [Salmeterol],remaining activity at 1.25 µM,[1]; Well no.=1414,98.7%
same,remaining activity at 3.75 µM,[2]; Well no.=1414,99.5%
"CC1=C[C@]23C(=O)[C@@H](C=C(COC(=O)c4ccccc4)[C@@H](O)[C@]2(O)[C@H]1OC(=O)c1ccccc1)[C@H]1[C@@H](C[C@H]3C)C1(C)C [Ingenol 3,20-dibenzoate]",remaining activity at 1.25 µM,[1]; Well no.=3363,95%
same,remaining activity at 3.75 µM,[2]; Well no.=3363,97.2%
CN1CCN(C2=Nc3ccccc3Oc3ccc(Cl)cc32)CC1 [Loxapine],remaining activity at 1.25 µM,[1]; Well no.=6371,99.7%
same,remaining activity at 3.75 µM,[2]; Well no.=6371,102%
S=C(S)N1CCCC1 [Ammonium pyrrolidinedithiocarbamate],remaining activity at 1.25 µM,[1]; Well no.=1495,102%
same,remaining activity at 3.75 µM,[2]; Well no.=1495,97.9%
"O=C(Nc1cc(Cl)cc(Cl)c1)[C@H]1CCCC[C@H]1C(=O)O [(1R,2S)-VU0155041]",remaining activity at 1.25 µM,[1]; Well no.=8475,99%
same,remaining activity at 3.75 µM,[2]; Well no.=8475,103%
COC(=O)C1=CO[C@@H](O)[C@@H]2C(CO)=CC[C@H]12 [Genipin],remaining activity at 1.25 µM,[1]; Well no.=5276,95.9%
same,remaining activity at 3.75 µM,[2]; Well no.=5276,89.2%
COc1ccc2c(c1)[nH]c1c(C)nccc12 [Harmine],remaining activity at 1.25 µM,[1]; Well no.=2092,90.6%
same,remaining activity at 1.25 µM,[1]; Well no.=3681,97.5%
same,remaining activity at 1.25 µM,[1]; Well no.=8343,96.2%
same,remaining activity at 3.75 µM,[2]; Well no.=2092,88.2%
same,remaining activity at 3.75 µM,[2]; Well no.=3681,97.5%
same,remaining activity at 3.75 µM,[2]; Well no.=8343,83.5%
"c1ccc(-c2ccccn2)nc1 [2,2'-Bipyridyl]",remaining activity at 1.25 µM,[1]; Well no.=724,96.8%
same,remaining activity at 3.75 µM,[2]; Well no.=724,95.8%
OC[C@H]1O[C@@H](n2cnc3c(NC4CCCC4)ncnc32)[C@H](O)[C@@H]1O [N6-Cyclopentyladenosine],remaining activity at 1.25 µM,[1]; Well no.=330,85.8%
same,remaining activity at 3.75 µM,[2]; Well no.=330,88.2%
Nc1cc(-c2ccncc2)c[nH]c1=O [amrinone],remaining activity at 1.25 µM,[1]; Well no.=2146,102%
same,remaining activity at 3.75 µM,[2]; Well no.=2146,100%
CC(C)[C@@H]1NC(=O)[C@H](CCCCN)NC(=O)[C@@H](Cc2c[nH]c3ccccc23)NC(=O)[C@H](Cc2ccc(O)cc2)NC(=O)[C@H](C)N(C)C(=O)[C@H](Cc2ccccc2)NC1=O [Seglitide],remaining activity at 1.25 µM,[1]; Well no.=1452,97%
same,remaining activity at 3.75 µM,[2]; Well no.=1452,97.2%
CN(C)CCC=C1c2ccccc2CCc2ccccc21 [Amitriptyline hydrochloride],remaining activity at 1.25 µM,[1]; Well no.=150,103%
same,remaining activity at 3.75 µM,[2]; Well no.=150,98.5%
O=C(O[C@H]1C[C@H]2CC[C@@H](C1)[N+]21CCCC1)C(O)(c1ccccc1)c1ccccc1 [Trospium (chloride)],remaining activity at 1.25 µM,[1]; Well no.=6571,103%
same,remaining activity at 3.75 µM,[2]; Well no.=6571,102%
Cc1cc(C(=O)NOCCO)c(Nc2ccc(I)cc2F)n(C)c1=O [AZD8330],remaining activity at 1.25 µM,[1]; Well no.=5104,107%
same,remaining activity at 3.75 µM,[2]; Well no.=5104,106%
CN/C(=N\CCSCc1nc[nH]c1C)NC#N [Cimetidine],remaining activity at 1.25 µM,[1]; Well no.=272,88%
same,remaining activity at 1.25 µM,[1]; Well no.=1875,96.3%
same,remaining activity at 1.25 µM,[1]; Well no.=7328,94.5%
same,remaining activity at 3.75 µM,[2]; Well no.=272,93.4%
same,remaining activity at 3.75 µM,[2]; Well no.=1875,99.3%
same,remaining activity at 3.75 µM,[2]; Well no.=7328,97.6%
CNC(=O)[C@H]1O[C@@H](n2cnc3c(NCc4cccc(I)c4)ncnc32)[C@H](O)[C@@H]1O [IB-MECA],remaining activity at 1.25 µM,[1]; Well no.=923,94.3%
same,remaining activity at 3.75 µM,[2]; Well no.=923,99.3%
Cc1oncc1C(=O)Nc1ccc(C(F)(F)F)cc1 [Leflunomide],remaining activity at 1.25 µM,[1]; Well no.=787,104%
same,remaining activity at 1.25 µM,[1]; Well no.=2268,96.5%
same,remaining activity at 3.75 µM,[2]; Well no.=787,105%
same,remaining activity at 3.75 µM,[2]; Well no.=2268,104%
C/C=C(/C)C(=O)O[C@H]1C(C)=C2[C@H]([C@@H]1OC(=O)CCCCCCC)[C@@](C)(OC(C)=O)C[C@H](OC(=O)CCC)[C@@]1(O)[C@H]2OC(=O)[C@@]1(C)O [Thapsigargin],remaining activity at 1.25 µM,[1]; Well no.=1470,98%
same,remaining activity at 1.25 µM,[1]; Well no.=3184,107%
same,remaining activity at 3.75 µM,[2]; Well no.=1470,95.1%
same,remaining activity at 3.75 µM,[2]; Well no.=3184,107%
CC[C@H]1OC(=O)C[C@@H](O)[C@H](C)[C@@H](O[C@@H]2O[C@H](C)[C@@H](O[C@H]3C[C@@](C)(O)[C@@H](O)[C@H](C)O3)[C@H](N(C)C)[C@H]2O)[C@@H](CC=O)C[C@@H](C)C(=O)/C=C/C(C)=C/[C@@H]1CO[C@@H]1O[C@H](C)[C@@H](O)[C@@H](OC)[C@H]1OC [Tylosin tartrate],remaining activity at 1.25 µM,[1]; Well no.=4985,95.4%
same,remaining activity at 3.75 µM,[2]; Well no.=4985,93%
"CCCCC/C=C\C/C=C\CCCCCCCCC(=O)O [10(Z),13(Z)-Nonadecadienoic acid]",remaining activity at 1.25 µM,[1]; Well no.=4396,97.8%
same,remaining activity at 3.75 µM,[2]; Well no.=4396,92.5%
COC(=O)C1=C(C)NC(C)=C([N+](=O)[O-])C1c1ccccc1C(F)(F)F (racemic),remaining activity at 1.25 µM,[1]; Well no.=133,108%
same,remaining activity at 3.75 µM,[2]; Well no.=133,105%
O=C1Nc2ccccc2/C1=C\c1c(Cl)[nH]c2ccccc12 [Cdk1 Inhibitor],remaining activity at 1.25 µM,[1]; Well no.=2364,101%
same,remaining activity at 3.75 µM,[2]; Well no.=2364,104%
"N=C1Sc2ccccc2C2=NCCCN12 [PD 404,182]",remaining activity at 1.25 µM,[1]; Well no.=1096,98.8%
same,remaining activity at 3.75 µM,[2]; Well no.=1096,101%
Nn1nnc2ccccc21 [1-Aminobenzotriazole],remaining activity at 1.25 µM,[1]; Well no.=253,98.6%
same,remaining activity at 3.75 µM,[2]; Well no.=253,99%
O=c1ccn([C@@H]2O[C@H](COP(=O)(O)OP(=O)(O)O)[C@@H](O)[C@H]2O)c(=O)[nH]1 [Uridine 5'-diphosphate sodium],remaining activity at 1.25 µM,[1]; Well no.=1188,104%
same,remaining activity at 3.75 µM,[2]; Well no.=1188,104%
